# Test system: E. coli BW25113
# Assay: MIC, microdilution in 96-well plates
# Assay type: cell-based
# Settings: Escherichia coli, BW25113, B: E. coli BW25113; read-out: MIC
# Summary of the method: (§1)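 Growth inhibition was scored after overnight culture (16-18 hours, 37° C., shaking) by looking for turbidity; the first clear well in a triplicate 2-fold compound series defined the MIC. Strains were inoculated at 1:10000 into LB.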
row,Structure (SMILES),MIC [µg/mL]
1,O=S(=O)(N[C@@H]1CCN(Cc2ccc(-c3ccccc3Cl)cc2)C1)c1cccc(OC(F)(F)F)c1 [Compound 75],> 8
2,N#Cc1cccc(S(=O)(=O)N[C@@H]2CCN(Cc3ccc(-c4cccc(Cl)c4)cc3)C2)c1 [Compound 24],> 8

# Same assay, conditions: Escherichia coli, BW25113, E. coli BW25113; read-out: MIC
row,Structure (SMILES),MIC [µg/mL]
1,Cc1ccc(S(=O)(=O)N[C@@H]2CCN(Cc3ccc(-c4ccccc4)cc3)C2)cc1C#N [Compound 131],> 8
2,Cc1ccc(S(=O)(=O)N[C@@H]2CCN(Cc3ccc(OC4CC4)cc3)C2)cc1C#N [Compound 162],> 8
3,O=S(=O)(N[C@@H]1CCN(Cc2ccc(OC3CC3)cc2)C1)c1cc(F)cc(C(F)(F)F)c1 [Compound 152],> 8

# Test system: Edwardsiella tarda
# Assay: MIC, microdilution in 96-well plates
# Assay type: cell-based
# Settings: not given
# Summary of the method: as §1
row,Structure (SMILES),MIC [µg/mL]
1,Cc1ccc(S(=O)(=O)N[C@@H]2CCN(Cc3ccc(-c4ccccc4)cc3)C2)cc1C#N [Compound 131],> 8
2,Cc1ccc(S(=O)(=O)N[C@@H]2CCN(Cc3ccc(OC4CC4)cc3)C2)cc1C#N [Compound 162],> 8
3,O=S(=O)(N[C@@H]1CCN(Cc2ccc(OC3CC3)cc2)C1)c1cc(F)cc(C(F)(F)F)c1 [Compound 152],> 8

# Same assay, conditions: D: Edwardsiella tarda
row,Structure (SMILES),MIC [µg/mL]
1,O=S(=O)(N[C@@H]1CCN(Cc2ccc(-c3ccccc3Cl)cc2)C1)c1cccc(OC(F)(F)F)c1 [Compound 75],> 8
2,N#Cc1cccc(S(=O)(=O)N[C@@H]2CCN(Cc3ccc(-c4cccc(Cl)c4)cc3)C2)c1 [Compound 24],> 8

# Test system: Klebsiella pneumoniae subsp. pneumoniae
# Assay: MIC, 20-strain panel
# Assay type: cell-based
# Settings: E: Klebsiella pneumoniae subsp. pneumoniae
# Summary of the method: as §1
row,Structure (SMILES),MIC [µg/mL]
1,O=S(=O)(N[C@@H]1CCN(Cc2ccc(-c3ccccc3Cl)cc2)C1)c1cccc(OC(F)(F)F)c1 [Compound 75],> 8
2,N#Cc1cccc(S(=O)(=O)N[C@@H]2CCN(Cc3ccc(-c4cccc(Cl)c4)cc3)C2)c1 [Compound 24],> 8

# Same assay, conditions: Klebsiella pneumoniae subsp. pneumoniae
row,Structure (SMILES),MIC [µg/mL]
1,Cc1ccc(S(=O)(=O)N[C@@H]2CCN(Cc3ccc(-c4ccccc4)cc3)C2)cc1C#N [Compound 131],> 8
2,Cc1ccc(S(=O)(=O)N[C@@H]2CCN(Cc3ccc(OC4CC4)cc3)C2)cc1C#N [Compound 162],> 8
3,O=S(=O)(N[C@@H]1CCN(Cc2ccc(OC3CC3)cc2)C1)c1cc(F)cc(C(F)(F)F)c1 [Compound 152],> 8

# Test system: Salmonella enterica subsp. enterica typhimurium
# Assay: MIC, 20-strain panel
# Assay type: cell-based
# Settings: F: Salmonella enterica subsp. enterica Typhimurium
# Summary of the method: as §1
row,Structure (SMILES),MIC [µg/mL]
1,O=S(=O)(N[C@@H]1CCN(Cc2ccc(-c3ccccc3Cl)cc2)C1)c1cccc(OC(F)(F)F)c1 [Compound 75],> 8
2,N#Cc1cccc(S(=O)(=O)N[C@@H]2CCN(Cc3ccc(-c4cccc(Cl)c4)cc3)C2)c1 [Compound 24],> 8

# Same assay, conditions: Salmonella enterica subsp. enterica Typhimurium
row,Structure (SMILES),MIC [µg/mL]
1,Cc1ccc(S(=O)(=O)N[C@@H]2CCN(Cc3ccc(-c4ccccc4)cc3)C2)cc1C#N [Compound 131],> 8
2,Cc1ccc(S(=O)(=O)N[C@@H]2CCN(Cc3ccc(OC4CC4)cc3)C2)cc1C#N [Compound 162],> 8
3,O=S(=O)(N[C@@H]1CCN(Cc2ccc(OC3CC3)cc2)C1)c1cc(F)cc(C(F)(F)F)c1 [Compound 152],> 8

# Test system: Staphylococcus epidermidis
# Assay: MIC, 20-strain panel
# Assay type: cell-based
# Settings: not given
# Summary of the method: as §1
row,Structure (SMILES),MIC [µg/mL]
1,Cc1ccc(S(=O)(=O)N[C@@H]2CCN(Cc3ccc(-c4ccccc4)cc3)C2)cc1C#N [Compound 131],> 8
2,O=S(=O)(N[C@@H]1CCN(Cc2ccc(-c3ccccc3Cl)cc2)C1)c1cccc(OC(F)(F)F)c1 [Compound 75],> 8
3,N#Cc1cccc(S(=O)(=O)N[C@@H]2CCN(Cc3ccc(-c4cccc(Cl)c4)cc3)C2)c1 [Compound 24],> 8
4,Cc1ccc(S(=O)(=O)N[C@@H]2CCN(Cc3ccc(OC4CC4)cc3)C2)cc1C#N [Compound 162],> 8
5,O=S(=O)(N[C@@H]1CCN(Cc2ccc(OC3CC3)cc2)C1)c1cc(F)cc(C(F)(F)F)c1 [Compound 152],> 8

# Test system: Streptococcus pyogenes
# Assay: MIC, 20-strain panel
# Assay type: cell-based
# Settings: not given
# Summary of the method: as §1
row,Structure (SMILES),MIC [µg/mL]
1,Cc1ccc(S(=O)(=O)N[C@@H]2CCN(Cc3ccc(-c4ccccc4)cc3)C2)cc1C#N [Compound 131],> 8
2,O=S(=O)(N[C@@H]1CCN(Cc2ccc(-c3ccccc3Cl)cc2)C1)c1cccc(OC(F)(F)F)c1 [Compound 75],~8
3,N#Cc1cccc(S(=O)(=O)N[C@@H]2CCN(Cc3ccc(-c4cccc(Cl)c4)cc3)C2)c1 [Compound 24],> 8
4,Cc1ccc(S(=O)(=O)N[C@@H]2CCN(Cc3ccc(OC4CC4)cc3)C2)cc1C#N [Compound 162],> 8
5,O=S(=O)(N[C@@H]1CCN(Cc2ccc(OC3CC3)cc2)C1)c1cc(F)cc(C(F)(F)F)c1 [Compound 152],> 8

# Test system: E. coli JW5503 (deltolC)
# Assay: MIC, 20-strain panel
# Assay type: cell-based
# Settings: Escherichia coli, C: E. coli JW5503 (deltolC)
# Summary of the method: as §1
row,Structure (SMILES),MIC [µg/mL]
1,O=S(=O)(N[C@@H]1CCN(Cc2ccc(-c3ccccc3Cl)cc2)C1)c1cccc(OC(F)(F)F)c1 [Compound 75],~8
2,N#Cc1cccc(S(=O)(=O)N[C@@H]2CCN(Cc3ccc(-c4cccc(Cl)c4)cc3)C2)c1 [Compound 24],4

# Same assay, conditions: Escherichia coli, E. coli JW5503 (deltolC)
row,Structure (SMILES),MIC [µg/mL]
1,Cc1ccc(S(=O)(=O)N[C@@H]2CCN(Cc3ccc(-c4ccccc4)cc3)C2)cc1C#N [Compound 131],8
2,Cc1ccc(S(=O)(=O)N[C@@H]2CCN(Cc3ccc(OC4CC4)cc3)C2)cc1C#N [Compound 162],> 8
3,O=S(=O)(N[C@@H]1CCN(Cc2ccc(OC3CC3)cc2)C1)c1cc(F)cc(C(F)(F)F)c1 [Compound 152],8

# Test system: Staphylococcus aureus subsp. aureus
# Assay: MIC, 20-strain panel
# Assay type: cell-based
# Settings: H: Staphylococcus aureus subsp. aureus, read-out: MIC
# Summary of the method: as §1
row,Structure (SMILES),MIC [µg/mL]
1,O=S(=O)(N[C@@H]1CCN(Cc2ccc(-c3ccccc3Cl)cc2)C1)c1cccc(OC(F)(F)F)c1 [Compound 75],> 8
2,N#Cc1cccc(S(=O)(=O)N[C@@H]2CCN(Cc3ccc(-c4cccc(Cl)c4)cc3)C2)c1 [Compound 24],> 8

# Same assay, conditions: Staphylococcus aureus subsp. aureus, read-out: MIC
row,Structure (SMILES),MIC [µg/mL]
1,Cc1ccc(S(=O)(=O)N[C@@H]2CCN(Cc3ccc(-c4ccccc4)cc3)C2)cc1C#N [Compound 131],> 8
2,Cc1ccc(S(=O)(=O)N[C@@H]2CCN(Cc3ccc(OC4CC4)cc3)C2)cc1C#N [Compound 162],> 8
3,O=S(=O)(N[C@@H]1CCN(Cc2ccc(OC3CC3)cc2)C1)c1cc(F)cc(C(F)(F)F)c1 [Compound 152],> 8

# Test system: Streptococcus agalactiae
# Assay: MIC, 20-strain panel
# Assay type: cell-based
# Settings: not given
# Summary of the method: as §1
row,Structure (SMILES),MIC [µg/mL]
1,Cc1ccc(S(=O)(=O)N[C@@H]2CCN(Cc3ccc(-c4ccccc4)cc3)C2)cc1C#N [Compound 131],> 8
2,O=S(=O)(N[C@@H]1CCN(Cc2ccc(-c3ccccc3Cl)cc2)C1)c1cccc(OC(F)(F)F)c1 [Compound 75],> 8
3,N#Cc1cccc(S(=O)(=O)N[C@@H]2CCN(Cc3ccc(-c4cccc(Cl)c4)cc3)C2)c1 [Compound 24],> 8
4,Cc1ccc(S(=O)(=O)N[C@@H]2CCN(Cc3ccc(OC4CC4)cc3)C2)cc1C#N [Compound 162],> 8
5,O=S(=O)(N[C@@H]1CCN(Cc2ccc(OC3CC3)cc2)C1)c1cc(F)cc(C(F)(F)F)c1 [Compound 152],> 8

# Test system: Staphylococcus saprophyticus subsp. saprophyticus
# Assay: MIC, 20-strain panel
# Assay type: cell-based
# Settings: not given
# Summary of the method: as §1
row,Structure (SMILES),MIC [µg/mL]
1,Cc1ccc(S(=O)(=O)N[C@@H]2CCN(Cc3ccc(-c4ccccc4)cc3)C2)cc1C#N [Compound 131],> 8
2,O=S(=O)(N[C@@H]1CCN(Cc2ccc(-c3ccccc3Cl)cc2)C1)c1cccc(OC(F)(F)F)c1 [Compound 75],> 8
3,N#Cc1cccc(S(=O)(=O)N[C@@H]2CCN(Cc3ccc(-c4cccc(Cl)c4)cc3)C2)c1 [Compound 24],> 8
4,Cc1ccc(S(=O)(=O)N[C@@H]2CCN(Cc3ccc(OC4CC4)cc3)C2)cc1C#N [Compound 162],> 8
5,O=S(=O)(N[C@@H]1CCN(Cc2ccc(OC3CC3)cc2)C1)c1cc(F)cc(C(F)(F)F)c1 [Compound 152],> 8

# Test system: Shigella flexneri
# Assay: MIC, 20-strain panel
# Assay type: cell-based
# Settings: not given
# Summary of the method: as §1
row,Structure (SMILES),MIC [µg/mL]
1,Cc1ccc(S(=O)(=O)N[C@@H]2CCN(Cc3ccc(-c4ccccc4)cc3)C2)cc1C#N [Compound 131],> 8
2,Cc1ccc(S(=O)(=O)N[C@@H]2CCN(Cc3ccc(OC4CC4)cc3)C2)cc1C#N [Compound 162],> 8
3,O=S(=O)(N[C@@H]1CCN(Cc2ccc(OC3CC3)cc2)C1)c1cc(F)cc(C(F)(F)F)c1 [Compound 152],> 8

# Same assay, conditions: G: Shigella flexneri
row,Structure (SMILES),MIC [µg/mL]
1,O=S(=O)(N[C@@H]1CCN(Cc2ccc(-c3ccccc3Cl)cc2)C1)c1cccc(OC(F)(F)F)c1 [Compound 75],> 8
2,N#Cc1cccc(S(=O)(=O)N[C@@H]2CCN(Cc3ccc(-c4cccc(Cl)c4)cc3)C2)c1 [Compound 24],> 8

# Test system: E. coli MG1655
# Assay: MIC, 20-strain panel
# Assay type: cell-based
# Settings: Escherichia coli, MG1655, A: E. coli MG1655; read-out: MIC
# Summary of the method: as §1
row,Structure (SMILES),MIC [µg/mL]
1,O=S(=O)(N[C@@H]1CCN(Cc2ccc(-c3ccccc3Cl)cc2)C1)c1cccc(OC(F)(F)F)c1 [Compound 75],> 8
2,N#Cc1cccc(S(=O)(=O)N[C@@H]2CCN(Cc3ccc(-c4cccc(Cl)c4)cc3)C2)c1 [Compound 24],> 8

# Same assay, conditions: Escherichia coli, MG1655, E. coli MG1655; read-out: MIC
row,Structure (SMILES),MIC [µg/mL]
1,Cc1ccc(S(=O)(=O)N[C@@H]2CCN(Cc3ccc(-c4ccccc4)cc3)C2)cc1C#N [Compound 131],> 8
2,Cc1ccc(S(=O)(=O)N[C@@H]2CCN(Cc3ccc(OC4CC4)cc3)C2)cc1C#N [Compound 162],> 8
3,O=S(=O)(N[C@@H]1CCN(Cc2ccc(OC3CC3)cc2)C1)c1cc(F)cc(C(F)(F)F)c1 [Compound 152],> 8
